Patent publication US20100267561A1, “HERBICIDAL PYRIDAZINONE DERIVATIVES” (priority 2007, published 2010)
Where two headings read alike, the source gives them in different places.

Assays:
Assay in all cases: Test B pre-/postemergence plant response
Type in all cases: in vivo
[1] = tested on: green foxtail (Setaria viridis); details: for Foxtail, Green plant response rating: 8 g ai/ha; for pest or weed control at 16 g/ha / pest or weed control at 31 g/ha / pest or weed control at 62 g/ha: Setaria viridis, read-out: Plant response rating, Foxtail, Green; for pest or weed control at 16 g/ha: 16 g ai/ha; for pest or weed control at 31 g/ha: 31 g ai/ha; for pest or weed control at 62 g/ha: 62 g ai/ha
Procedure, shortened: (§1)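 Seeds were sown and sprayed preemergence, while plants at 2 to 18 cm (1- to 4-leaf stage) got postemergence sprays. Compounds were formulated in a non-phytotoxic solvent mixture with surfactant. After 13 to 15 days in a greenhouse, injury was rated visually against untreated controls, 0 (no effect) to 100 (complete control).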

[2] = tested on: Russian thistle (Salsola iberica); details: Preemergence
Procedure, shortened: as §1

[3] = tested on: woolly cupgrass (Eriochloa villosa); details: for Cupgrass, Woolly plant response rating: 8 g ai/ha; for pest or weed control at 16 g/ha / pest or weed control at 31 g/ha / pest or weed control at 62 g/ha: Eriochloa villosa, read-out: Plant response rating, Cupgrass, Woolly; for pest or weed control at 16 g/ha: 16 g ai/ha; for pest or weed control at 31 g/ha: 31 g ai/ha; for pest or weed control at 62 g/ha: 62 g ai/ha
Procedure, shortened: as §1

[4] = tested on: morningglory (Ipomoea coccinea); details: for Morningglory plant response rating: 8 g ai/ha; for pest or weed control at 16 g/ha / pest or weed control at 31 g/ha / pest or weed control at 62 g/ha: Ipomoea, read-out: Plant response rating, Morningglory; for pest or weed control at 16 g/ha: 16 g ai/ha; for pest or weed control at 31 g/ha: 31 g ai/ha; for pest or weed control at 62 g/ha: 62 g ai/ha
Procedure, shortened: as §1

[5] = tested on: surinam grass (Brachiaria decumbens); details: for Surinam Grass plant response rating: 8 g ai/ha; for pest or weed control at 16 g/ha: 16 g ai/ha; for pest or weed control at 62 g/ha: 62 g ai/ha
Procedure, shortened: as §1

[6] = tested on: bermudagrass (Cynodon dactylon); details: for Bermudagrass plant response rating: 8 g ai/ha; for pest or weed control at 16 g/ha / pest or weed control at 31 g/ha / pest or weed control at 62 g/ha: Cynodon dactylon, read-out: Plant response rating, Bermudagrass; for pest or weed control at 16 g/ha: 16 g ai/ha; for pest or weed control at 31 g/ha: 31 g ai/ha; for pest or weed control at 62 g/ha: 62 g ai/ha
Procedure, shortened: as §1

[7] = tested on: velvetleaf (Abutilon theophrasti); details: for pest or weed control at 16 g/ha: 16 g ai/ha; for pest or weed control at 62 g/ha: 62 g ai/ha
Procedure, shortened: as §1

[8] = post-emergence, Postemergence, scale 0 to 100
[9] = post-emergence, Postemergence, scale 0 to 100, 0 no effect, 100 complete control
[10] = pre-emergence, Preemergence, scale 0 to 100 (0 no effect, 100 complete control)
[11] = pre-emergence, Preemergence, 0 to 100 scale, 0 no effect, 100 complete control
[12] = pre-emergence, Preemergence, scale 0 to 100

## CCc1c(C)c(-c2ccc(Cl)cc2)nn1-c1c(O)cnn(C)c1=O [Compound 26, 4-[3-(4-chlorophenyl)-5-ethyl-4-methyl-1H-pyrazol-1-yl]-5-hydroxy-2-methyl-3(2H)-pyridazinone]
[1]; postemergence, 0-100 scale
  Foxtail, Green plant response rating: 60
[1]; Preemergence, scale 0 to 100
  Foxtail, Green plant response rating: 98
[1]; [8]
  pest or weed control at 16 g/ha: 80%
[1]; [9]
  pest or weed control at 31 g/ha: 80%
  pest or weed control at 62 g/ha: 98%
[1]; [10]
  pest or weed control at 16 g/ha: 100%
[1]; [11]
  pest or weed control at 31 g/ha: 100%
[1]; [12]
  pest or weed control at 62 g/ha: 100%
[2]; 16 g ai/ha, scale 0 to 100 (0 no effect, 100 complete control)
  Plant response rating, Russian Thistle: 0
[2]; 31 g ai/ha, 0 to 100 scale, 0 no effect, 100 complete control
  Plant response rating, Russian Thistle: 0
[2]; 62 g ai/ha, scale 0 to 100
  Plant response rating, Russian Thistle: 0
[2]; 8 g ai/ha, scale 0 to 100
  Russian Thistle plant response rating: 0
[3]; postemergence, 0-100 scale
  Cupgrass, Woolly plant response rating: 85
[3]; [8]
  pest or weed control at 16 g/ha: 95%
[3]; [9]
  pest or weed control at 31 g/ha: 98%
  pest or weed control at 62 g/ha: 98%
[3]; [10]
  pest or weed control at 16 g/ha: 70%
[3]; [11]
  pest or weed control at 31 g/ha: 85%
[3]; [12]
  pest or weed control at 62 g/ha: 100%
[3]; Preemergence, scale 0 to 100
  Cupgrass, Woolly plant response rating: 20
[4]; postemergence, 0-100 scale
  Morningglory plant response rating: 0
[4]; [8]
  pest or weed control at 16 g/ha: 0%
[4]; [9]
  pest or weed control at 31 g/ha: 0%
  pest or weed control at 62 g/ha: 0%
[4]; [10]
  pest or weed control at 16 g/ha: 0%
[4]; [11]
  pest or weed control at 31 g/ha: 0%
[4]; [12]
  pest or weed control at 62 g/ha: 0%
[4]; Preemergence, scale 0 to 100
  Morningglory plant response rating: 0
[5]; postemergence, 0-100 scale
  Surinam Grass plant response rating: 85
[5]; Preemergence, scale 0 to 100
  Surinam Grass plant response rating: 75
[5]; Urochloa decumbens, post-emergence, Postemergence, scale 0 to 100, read-out: Plant response rating, Surinam Grass
  pest or weed control at 16 g/ha: 85%
[5]; Urochloa decumbens, post-emergence, Postemergence, scale 0 to 100, 0 no effect, 100 complete control, read-out: Plant response rating, Surinam Grass
  pest or weed control at 62 g/ha: 100%
[5]; Urochloa decumbens, pre-emergence, Preemergence, scale 0 to 100 (0 no effect, 100 complete control), read-out: Plant response rating, Surinam Grass
  pest or weed control at 16 g/ha: 85%
[5]; Urochloa decumbens, pre-emergence, Preemergence, 31 g ai/ha, 0 to 100 scale, 0 no effect, 100 complete control, read-out: Plant response rating, Surinam Grass
  pest or weed control at 31 g/ha: 100%
[5]; Urochloa decumbens, pre-emergence, Preemergence, scale 0 to 100, read-out: Plant response rating, Surinam Grass
  pest or weed control at 62 g/ha: 100%
[6]; postemergence, 0-100 scale
  Bermudagrass plant response rating: 0
[6]; [8]
  pest or weed control at 16 g/ha: 0%
[6]; [9]
  pest or weed control at 31 g/ha: 0%
  pest or weed control at 62 g/ha: 0%
[6]; [10]
  pest or weed control at 16 g/ha: 0%
[6]; [11]
  pest or weed control at 31 g/ha: 0%
[6]; [12]
  pest or weed control at 62 g/ha: 80%
[6]; Preemergence, scale 0 to 100 (0 no effect, 100 complete control)
  Bermudagrass plant response rating: 0
[7]; 8 g ai/ha, postemergence, 0-100 scale
  Velvetleaf plant response rating: 0
[7]; Abutilon theophrasti, post-emergence, Postemergence, scale 0 to 100, read-out: Plant response rating, Velvetleaf
  pest or weed control at 16 g/ha: 0%
[7]; Abutilon theophrasti, post-emergence, Postemergence, scale 0 to 100, 0 no effect, 100 complete control, read-out: Plant response rating, Velvetleaf
  pest or weed control at 62 g/ha: 0%
[7]; Abutilon theophrasti, pre-emergence, Preemergence, scale 0 to 100 (0 no effect, 100 complete control), read-out: Plant response rating, Velvetleaf
  pest or weed control at 16 g/ha: 0%
[7]; Abutilon theophrasti, pre-emergence, Preemergence, 31 g ai/ha, 0 to 100 scale, 0 no effect, 100 complete control, read-out: Plant response rating, Velvetleaf
  pest or weed control at 31 g/ha: 0%
[7]; Abutilon theophrasti, pre-emergence, Preemergence, scale 0 to 100, read-out: Plant response rating, Velvetleaf
  pest or weed control at 62 g/ha: 0%
